Assay results reported in ChEMBL document CHEMBL1201862, “PubChem BioAssay data set” (2004).
Each block holds one compound with its values, some of them ahead of it. Active and inactive are the calls of the source. Rule as the data show it, for most assays here: actives have a measured IC50 and inactives only a lower limit.

Columns and labels:
[1] = molecular target: T1, Tyrosine-protein phosphatase non-receptor type 22 (Homo sapiens, UniProt Q9Y2R2); assay type: functional
T1 sequence (Q9Y2R2 whole entry): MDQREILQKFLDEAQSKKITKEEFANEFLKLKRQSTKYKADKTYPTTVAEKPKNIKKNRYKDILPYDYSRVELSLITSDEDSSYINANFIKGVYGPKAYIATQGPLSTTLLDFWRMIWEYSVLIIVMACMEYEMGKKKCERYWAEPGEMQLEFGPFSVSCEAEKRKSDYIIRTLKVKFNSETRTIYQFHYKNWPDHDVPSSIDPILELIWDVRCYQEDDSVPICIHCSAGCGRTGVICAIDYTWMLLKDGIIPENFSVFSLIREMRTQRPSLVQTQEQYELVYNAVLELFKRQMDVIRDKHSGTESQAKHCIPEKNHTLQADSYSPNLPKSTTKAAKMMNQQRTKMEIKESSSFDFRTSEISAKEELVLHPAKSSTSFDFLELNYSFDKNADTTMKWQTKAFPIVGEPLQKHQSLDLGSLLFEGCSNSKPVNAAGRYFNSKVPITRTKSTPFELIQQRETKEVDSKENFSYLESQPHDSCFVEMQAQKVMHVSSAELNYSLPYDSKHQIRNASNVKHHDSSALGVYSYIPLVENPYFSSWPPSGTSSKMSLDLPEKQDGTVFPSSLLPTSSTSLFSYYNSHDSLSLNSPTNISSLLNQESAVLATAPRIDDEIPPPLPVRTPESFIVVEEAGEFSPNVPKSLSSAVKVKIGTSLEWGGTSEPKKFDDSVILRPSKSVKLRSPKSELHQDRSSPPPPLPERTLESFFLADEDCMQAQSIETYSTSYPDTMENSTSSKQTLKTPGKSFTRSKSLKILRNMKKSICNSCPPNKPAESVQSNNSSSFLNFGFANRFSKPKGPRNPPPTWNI

[2] = molecular target: T1, Tyrosine-protein phosphatase non-receptor type 22; assay type: functional; remark: listed apart in the source
[3] = molecular target: T2, Tyrosine-protein phosphatase non-receptor type 7 (Homo sapiens, UniProt P35236); assay type: functional
T2 sequence (P35236 whole entry): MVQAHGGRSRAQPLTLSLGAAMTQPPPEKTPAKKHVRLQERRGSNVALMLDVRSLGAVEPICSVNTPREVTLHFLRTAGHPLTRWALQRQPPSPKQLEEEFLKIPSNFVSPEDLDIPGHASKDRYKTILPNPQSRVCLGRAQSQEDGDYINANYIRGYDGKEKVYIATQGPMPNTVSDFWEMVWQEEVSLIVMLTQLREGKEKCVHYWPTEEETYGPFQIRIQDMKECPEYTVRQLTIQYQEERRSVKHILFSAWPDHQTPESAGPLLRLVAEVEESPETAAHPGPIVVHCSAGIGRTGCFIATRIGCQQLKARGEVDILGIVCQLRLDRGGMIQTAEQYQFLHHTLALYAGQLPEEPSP

[4] = off-target signal loss in HeLa-CEM21 co-culture – HeLa F-luc CTL cells, cherry-picked, counter-screen for HIV-1 Env fusion inhibitor project, dose response (AID 652040); assay type: functional, cell-based;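 also: potency for signal decrease marking cytotoxic or nonspecific inhibition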
[5] = blockers of HIV-1 envelope-mediated cell-cell fusion – cherry-pick, dose response (AID 652057); assay type: functional, cell-based
[6] = HIV-1 AD8 envelope cell-cell fusion blockers – cherry-pick, dose response (AID 652062); assay type: functional, cell-based;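 also: luciferase signal from cell-cell fusion driven by HIV-1 clade B AD8 Env; potency is for inhibitors of fusion seen as a drop in luminescence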
HEK293 [7] = assay: cells; conditions: Homo sapiens
[8] = blockers of HIV-1 ZM109 envelope-driven cell-cell fusion – HeLa effector, CEM target cells, luciferase, cherry-pick, dose response (AID 652058); assay type: functional, cell-based;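 also: luciferase signal from HIV-1 Env mediated cell-cell fusion of effector and target cells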
HEK293 [9] = assay: cells; conditions: Homo sapiens; remark: listed apart in the source
[10] = molecular target: T3, E3 ubiquitin-protein ligase XIAP (Homo sapiens, UniProt P98170); assay: small molecules displacing peptide from XIAP – biochemical, IAP family, fluorescence polarization (AID 1018); assay type: functional
[11] = molecular target: T3, E3 ubiquitin-protein ligase XIAP; assay: Counter Screen using XIAP-Bir3 for Chemical Antagonists of Bir1/2 domains of IAP-family anti-apoptotic proteins. [Related pubchem assays (depositor defined):AID1018, AID1449, AID1514, AID1638, AID1749, AID1750, AID488957, AID488963]
[12] = molecular target: Tyrosine-protein phosphatase non-receptor type 12 (Homo sapiens, UniProt Q05209); assay: SAR Selectivity Analysis of small molecule inhibitors of PEST using pCAP in a fluorescence assay. [Related pubchem assays (depositor defined):AID1779, AID1784, AID2135]; assay type: functional
[13] = molecular target: T2, Tyrosine-protein phosphatase non-receptor type 7; assay: inhibition of hematopoietic tyrosine phosphatase HePTP – biochemical, set 2, SAR follow-up (AID 449736); assay type: functional
[14] = molecular target: T1, Tyrosine-protein phosphatase non-receptor type 22; assay: SAR LYP1 Fluorescent Assay using OMFP substrate for In Vitro dose response studies - Set 2. [Related pubchem assays (depositor defined):AID1779, AID1784, AID2140, AID449726, AID488869]; assay type: functional
[15] = molecular target: T1, Tyrosine-protein phosphatase non-receptor type 22; assay: inhibition of lymphoid tyrosine phosphatase LYP – biochemical, pCAP fluorogenic substrate, fluorescence, set 3, SAR follow-up (AID 449727); assay type: functional
[16] = molecular target: T1, Tyrosine-protein phosphatase non-receptor type 22; assay: SAR LYP1 Fluorescent Assay using pCAP substrate for In Vitro dose response studies - Set 2. [Related pubchem assays (depositor defined):AID1779, AID1784, AID2135, AID449727]; assay type: functional
[17] = molecular target: T1, Tyrosine-protein phosphatase non-receptor type 22; assay: SAR LYP1 Fluorescent Assay using OMFP substrate for In Vitro dose response studies - Set 3. [Related pubchem assays (depositor defined):AID1779, AID1784, AID2140, AID2686]; assay type: functional

T3 sequence (P98170 whole entry): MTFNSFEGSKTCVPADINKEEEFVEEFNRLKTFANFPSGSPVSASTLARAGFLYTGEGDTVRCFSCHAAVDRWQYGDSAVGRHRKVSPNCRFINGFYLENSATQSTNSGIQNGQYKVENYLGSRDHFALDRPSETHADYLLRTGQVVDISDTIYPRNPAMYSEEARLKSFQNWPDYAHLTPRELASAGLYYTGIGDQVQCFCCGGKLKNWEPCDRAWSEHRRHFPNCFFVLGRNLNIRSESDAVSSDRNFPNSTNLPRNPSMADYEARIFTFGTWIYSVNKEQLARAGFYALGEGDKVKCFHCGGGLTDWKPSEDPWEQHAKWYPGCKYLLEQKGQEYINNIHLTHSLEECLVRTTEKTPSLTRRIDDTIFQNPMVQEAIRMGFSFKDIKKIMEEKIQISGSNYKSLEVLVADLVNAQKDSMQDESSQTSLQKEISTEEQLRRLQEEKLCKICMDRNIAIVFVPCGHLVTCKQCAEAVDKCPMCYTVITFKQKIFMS
Sequence of Tyrosine-protein phosphatase non-receptor type 12 (Q05209 whole entry): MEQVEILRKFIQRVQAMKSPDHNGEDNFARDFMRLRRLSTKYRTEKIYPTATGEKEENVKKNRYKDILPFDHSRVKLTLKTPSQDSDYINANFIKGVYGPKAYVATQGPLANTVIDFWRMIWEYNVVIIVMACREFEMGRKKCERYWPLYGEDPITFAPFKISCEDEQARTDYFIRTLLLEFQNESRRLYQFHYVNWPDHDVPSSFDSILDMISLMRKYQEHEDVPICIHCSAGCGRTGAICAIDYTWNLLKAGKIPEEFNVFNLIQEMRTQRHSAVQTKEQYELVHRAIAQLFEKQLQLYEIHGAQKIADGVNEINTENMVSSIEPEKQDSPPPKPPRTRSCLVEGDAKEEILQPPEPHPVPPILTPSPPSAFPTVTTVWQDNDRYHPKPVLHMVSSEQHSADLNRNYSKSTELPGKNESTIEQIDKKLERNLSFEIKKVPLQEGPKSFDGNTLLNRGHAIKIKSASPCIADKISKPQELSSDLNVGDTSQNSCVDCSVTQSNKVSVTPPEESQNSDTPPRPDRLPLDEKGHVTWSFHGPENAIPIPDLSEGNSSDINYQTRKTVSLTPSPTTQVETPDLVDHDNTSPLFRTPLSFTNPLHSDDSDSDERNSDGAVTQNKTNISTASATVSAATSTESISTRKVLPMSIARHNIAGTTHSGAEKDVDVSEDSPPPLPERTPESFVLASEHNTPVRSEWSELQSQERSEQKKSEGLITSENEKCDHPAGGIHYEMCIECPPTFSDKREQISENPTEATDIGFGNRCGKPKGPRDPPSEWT

IC50 [1]: > 79.4 µM (inactive)
IC50 [2]: > 79.4 µM (inactive)
IC50 [3]: > 79.4 µM (inactive)
Structure (SMILES): O=c1c(-c2ccccc2)c(O)c2c(n1-c1ccccc1)CCCC2

Structure (SMILES): CCS(=O)(=O)N1Cc2ccccc2CC1C(=O)NCC12CC3CC(CC(C3)C1)C2 (configuration not stated)
AC50 [4]: 7.35 µM (active)
AC50 [5]: 4.37 µM (active)
AC50 [6]: 19.8 µM (active)
EC50 (HEK293 [7]): > 59.7 µM (inactive)
AC50 [8]: 2.86 µM (active)
EC50 (HEK293 [9]): > 59.7 µM (inactive)

IC50 [10]: > 100 µM (not active)
IC50 [11]: > 100 µM (inactive)
Structure (SMILES): COC(=O)c1ccc(C(=O)NC(=S)Nc2nc3c(s2)CCCC3)cc1

IC50 [12]: > 100 µM (inactive)
IC50 [13]: > 100 µM (inactive)
IC50 [14]: > 100 µM (inactive)
IC50 [15]: > 100 µM (inactive)
IC50 [16]: 81.2 µM (active)
IC50 [17]: > 100 µM (inactive)
Structure (SMILES): O=C(O)COc1ccc2c(c1)O/C(=C\c1cccs1)C2=O
